The molecules below were run against T1, human CH24H (Homo sapiens, UniProt Q9Y6A2) (assay: Measurement of CH24H inhibitory activity (24-HC produced from [14C] cholesterol by human CH24H lysate)). Conditions: 1 μM test compound, [14C] cholesterol 15 μM, 37° C. for 5 hr, read-out: Inhibitory Rate in 1 μM (%).
T1 construct: Using Full-Length Mammalian Gene Collection No. 4819975 (Invitrogen) as a template; made in house; host or cells: FreeStyle 293-F cells (transient transfection with pcDNA3.1(+)/hCH24H); cell lysate supernatant
T1 sequence (Q9Y6A2 whole entry): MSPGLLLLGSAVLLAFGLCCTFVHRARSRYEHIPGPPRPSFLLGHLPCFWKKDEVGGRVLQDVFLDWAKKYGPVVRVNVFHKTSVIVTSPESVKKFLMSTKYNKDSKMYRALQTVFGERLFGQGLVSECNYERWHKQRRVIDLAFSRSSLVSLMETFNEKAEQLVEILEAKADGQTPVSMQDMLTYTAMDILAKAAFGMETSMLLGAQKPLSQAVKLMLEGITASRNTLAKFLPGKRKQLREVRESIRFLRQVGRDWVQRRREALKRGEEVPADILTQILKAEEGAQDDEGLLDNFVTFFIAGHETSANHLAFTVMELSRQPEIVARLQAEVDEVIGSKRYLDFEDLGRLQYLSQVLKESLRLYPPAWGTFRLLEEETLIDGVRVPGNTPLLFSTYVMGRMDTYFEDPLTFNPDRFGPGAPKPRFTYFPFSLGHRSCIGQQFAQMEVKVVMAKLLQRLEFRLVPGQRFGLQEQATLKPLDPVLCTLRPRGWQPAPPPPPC
Type: biochemical
Experimental: A plasmid DNA for expressing human CH24H in a FreeStyle 293 cell was produced as follows. Using Full-Length Mammalian Gene Collection No. 4819975 (Invitrogen) as a template, and the following two kinds of synthesized DNAs: 5′-[…]-3′ (SEQ ID NO: 1) and 5′-[…]-3′ (SEQ ID NO: 2), PCR was performed to amplify 91-1625 bp region of human CH24H (BC022539). The obtained fragment was cloned using TOPO TA Cloning Kit (Invitrogen). The obtained fragment was subcloned to pcDNA3.1(+) digested with BamHI and XhoI to give a plasmid DNA for human CH24H expression (pcDNA3.1(+)/hCH24H).
The expression of human CH24H was performed using FreeStyle 293 Expression System (Invitrogen). According to the manual attached to FreeStyle 293 Expression System and using the plasmid DNA for human CH24H expression (pcDNA3.1(+)/hCH24H) constructed in Experimental Example 1, a transient expression using FreeStyle 293-F cell was performed. After transfection, the cells were cultured at 37° C., 8% CO2 with shaking at 125 rpm for 2 days. The cells were collected by centrifugation, and suspended in a suspension buffer (100 mM potassium phosphate (pH 7.4), 0.1 mM EDTA, 1 mM DTT, 20% Glycerol). The suspended product was disrupted by a polytron homogenizer (manufactured by Kinematica), and centrifuged at 9000×g for 10 min, and the supernatant was collected. The collected supernatant was cryopreserved (−80° C.) as a human CH24H lysate standard product.
For the measurement of CH24H inhibitory activity, using the human CH24H lysate prepared in Experimental Example 2, the amount of 24-HC produced from cholesterol by catalytic activity of CH24H was measured in the presence of a test compound, and compared with that measured in the absence of the test compound. That is, a test compound solution at various concentrations was mixed with a reaction buffer (50 mM potassium phosphate containing 0.1% BSA and Complete, EDTA-free, pH 7.4) and human CH24H lysate. Then, [^14C] cholesterol (53 mCi/mmol specific activity, 15 μM) was added, and CH24H reaction was performed at 37° C. for 5 hr. After completion of the reaction, a quenching solution consisting of chloroform/methanol/distilled water (2:2:1 v/v) was added, and the resulting 24-HC was extracted by shaking. The extract was applied to silica gel thin layer chromatography (ethyl acetate:toluene=4:6), and the obtained ^14C-24HC fraction was measured with BAS2500 (Fujifilm Corporation).
The inhibitory rate (%) was calculated from the ratio of radioactivity in the presence of a test compound relative to the radioactivity in the absence of the test compound.

Row | Structure (SMILES) | inhibition at 1 µM [%]
1 | O=C(Nc1cc(-c2cnco2)cc(C(F)(F)F)c1)c1cccc(Cl)c1 [Example 1, 3-chloro-N-(3-(1,3-oxazol-5-yl)-5-(trifluoromethyl)phenyl)benzamide] | 89
2 | CC(C)c1cc(NS(=O)(=O)c2cccc(Cl)c2)cc(-c2cnco2)c1 [Example 4, 3-chloro-N-(3-isopropyl-5-(1,3-oxazol-5-yl)phenyl)benzenesulfonamide] | 89
3 | O=C(Nc1cc(-c2cnco2)cc(C2CC2)c1)c1cccc(Cl)c1 [Example 5, 3-chloro-N-(3-cyclopropyl-5-(1,3-oxazol-5-yl)phenyl)benzamide] | 79
4 | O=S(=O)(Nc1cc2c(c(-c3cnco3)c1)OCC2)c1cccc(Cl)c1 [Example 10, 3-chloro-N-(7-(1,3-oxazol-5-yl)-2,3-dihydro-1-benzofuran-5-yl)benzenesulfonamide] | 83
5 | O=C(Nc1cc(-c2cnco2)cc(C(F)F)c1)C1CC1 [Example 31, N-(3-(difluoromethyl)-5-(1,3-oxazol-5-yl)phenyl)cyclopropanecarboxamide] | 90
6 | O=C(C1CC1)N1CCCOc2c(-c3cnco3)cc(C(F)(F)F)cc21 [Example 53, cyclopropyl(9-(1,3-oxazol-5-yl)-7-(trifluoromethyl)-3,4-dihydro-1,5-benzoxazepin-5(2H)-yl)methanone] | 52
7 | FC(F)(F)c1cc(NCc2ccccn2)cc(-c2cnco2)c1 [Example 56, 3-(1,3-oxazol-5-yl)-N-(pyridin-2-ylmethyl)-5-(trifluoromethyl)aniline] | 88
8 | O=C(Nc1cc2c(c(-c3cnco3)c1)OCC2)C1CC1 [Example 58, N-(7-(1,3-oxazol-5-yl)-2,3-dihydro-1-benzofuran-5-yl)cyclopropanecarboxamide] | 84
9 | CC(C)C(=O)N1CCc2c(-c3cnco3)cc(C(F)(F)F)cc21 [Example 80, 2-methyl-1-(4-(1,3-oxazol-5-yl)-6-(trifluoromethyl)-2,3-dihydro-1H-indol-1-yl)propan-1-one] | 91
10 | O=C(N1CCOCC1)N1CCc2c(-c3cnco3)cc(C(F)(F)F)cc21 [Example 83, morpholin-4-yl(4-(1,3-oxazol-5-yl)-6-(trifluoromethyl)-2,3-dihydro-1H-indol-1-yl)methanone] | 92
11 | O=C(C1CCOCC1)N1CCc2c(-c3cnco3)cc(C(F)(F)F)cc21 [Example 87, (4-(1,3-oxazol-5-yl)-6-(trifluoromethyl)-2,3-dihydro-1H-indol-1-yl)(tetrahydro-2H-pyran-4-yl)methanone] | 97
12 | O=C(N1CCc2c(-c3cnco3)cc(C(F)(F)F)cc21)N1C[C@@H]2C[C@H]1CO2 [Example 128, (1S,4S)-2-oxa-5-azabicyclo[2.2.1]hept-5-yl(4-(1,3-oxazol-5-yl)-6-(trifluoromethyl)-2,3-dihydro-1H-indol-1-yl)methanone] | 97

Now from value to molecule:

Row | inhibition at 1 µM [%] | Structure (SMILES)
13 | 89 | O=C(Nc1cc(-c2cnco2)cc(C(F)(F)F)c1)C1CC1 [Example 17, N-(3-(1,3-oxazol-5-yl)-5-(trifluoromethyl)phenyl) cyclopropanecarboxamide]
14 | 92 | O=C(C1CC1)N1CCc2c(-c3cnco3)cc(C(F)(F)F)cc21 [Example 36, cyclopropyl(4-(1,3-oxazol-5-yl)-6-(trifluoromethyl)-2,3-dihydro-1H-indol-1-yl)methanone]
15 | 90 | O=C(Cn1ccnc1)Nc1cc(-c2cnco2)cc(C(F)(F)F)c1 [Example 43, 2-(1H-imidazol-1-yl)-N-(3-(1,3-oxazol-5-yl)-5-(trifluoromethyl)phenyl)acetamide]
16 | 92 | O=C(C1CC1)N1CCOc2c(-c3cnco3)cc(C(F)(F)F)cc21 [Example 54, cyclopropyl(8-(1,3-oxazol-5-yl)-6-(trifluoromethyl)-2,3-dihydro-4H-1,4-benzoxazin-4-yl)methanone]
17 | 88 | O=C(Nc1cc(C(F)(F)F)cc(-c2cnco2)n1)C1CC1 [Example 61, N-(6-(1,3-oxazol-5-yl)-4-(trifluoromethyl)pyridin-2-yl)cyclopropanecarboxamide]
18 | 93 | FC1(F)CCN(c2cc(-c3cnco3)cc(C(F)(F)F)c2)CC1 [Example 89, 4,4-difluoro-1-(3-(1,3-oxazol-5-yl)-5-(trifluoromethyl)phenyl)piperidine]
19 | 89 | OC1(Cc2ccccc2)CCN(c2cc(-c3cnco3)cc(C(F)(F)F)c2)CC1 [Example 92, 4-benzyl-1-(3-(1,3-oxazol-5-yl)-5-(trifluoromethyl)phenyl)piperidin-4-ol]
20 | 96 | O[C@H]1CCN(c2cc(-c3cnco3)cc(C(F)(F)F)c2)C1 [Example 95, (3S)-1-(3-(1,3-oxazol-5-yl)-5-(trifluoromethyl)phenyl)pyrrolidin-3-ol]
21 | 91 | OC1CCN(c2cc(C(F)(F)F)cc(-c3cnco3)n2)C1 (stereo not drawn) [Example 96, 1-(6-(1,3-oxazol-5-yl)-4-(trifluoromethyl)pyridin-2-yl)pyrrolidin-3-ol]
22 | 97 | OC1CN(c2cc(-c3cnco3)cc(C(F)(F)F)c2)CCC1Cc1ccccc1 (stereo not drawn) [Example 100, 4-benzyl-1-(3-(1,3-oxazol-5-yl)-5-(trifluoromethyl)phenyl)piperidin-3-ol]
23 | 91 | CC(=O)N1CCN(c2cc(-c3cnco3)cc(C(F)(F)F)c2)CC1 [Example 107, 1-(4-(3-(1,3-oxazol-5-yl)-5-(trifluoromethyl)phenyl)piperazin-1-yl)ethanone]
24 | 95 | CS(=O)(=O)NC1CCN(c2cc(-c3cnco3)cc(C(F)(F)F)c2)C1 (stereo not drawn) [Example 119, N-(1-(3-(1,3-oxazol-5-yl)-5-(trifluoromethyl)phenyl)pyrrolidin-3-yl)methanesulfonamide]
25 | 91 | CC1(C)CCN(c2cc(-c3cnco3)cc(C(F)(F)F)c2)C1=O [Example 127, 3,3-dimethyl-1-(3-(1,3-oxazol-5-yl)-5-(trifluoromethyl)phenyl)pyrrolidin-2-one]
26 | 89 | CC1(C)CCN(c2cc(C(F)(F)F)cc(-c3cnco3)n2)C1=O [Example 134, 3,3-dimethyl-1-(6-(1,3-ozazol-5-yl)-4-(trifluoromethyl)pyridin-2-yl)pyrrolidin-2-one]

The molecules below were run on 24-HC in the brain (assay: Quantification test of 24-HC in mouse brain after repeated oral administration). Conditions: 10 mg/kg orally once a day for 3 days; female C57BL/6N mice; brain 24-HC at 16 hours after the third administration; relative values with the control group as 100%.
Type: in vivo
Experimental: Animals used were 6-week-old female C57BL/6N mice (3 mice/group). A test compound was suspended in a 0.5% aqueous methylcellulose [133-14255 WAKO] solution (1 mg/mL). The body weight of the mice was measured, and the solution was forcibly administered orally and repeatedly once a day for 3 days. At 16 hours after the third administration, half of the brain was harvested, and the amount of 24-HC was measured.
The wet weight of the brain was measured, and the brain was homogenized with 4-fold amount of saline. This solution was used as a brain extract. The 24-HC in the brain extract was extracted with an acetonitrile solution (98% acetonitrile, 1.98% methanol, 0.02% formic acid), and quantified by HPLC. The average value of 24-HC amount was calculated and the results are shown in relative values with the control group as 100%.

Row | Structure (SMILES) | Decreasing Rate in 10 mg/kg (%)
27 | O=C(Nc1cc(-c2cnco2)cc(C(F)(F)F)c1)C1CC1 [Example 17, N-(3-(1,3-oxazol-5-yl)-5-(trifluoromethyl)phenyl) cyclopropanecarboxamide] | 80
28 | O=C(C1CC1)N1CCc2c(-c3cnco3)cc(C(F)(F)F)cc21 [Example 36, cyclopropyl(4-(1,3-oxazol-5-yl)-6-(trifluoromethyl)-2,3-dihydro-1H-indol-1-yl)methanone] | 73

Same assay, conditions: 30 mg/kg orally once a day for 3 days; female C57BL/6N mice; brain 24-HC at 16 hours after the third administration; relative values with the control group as 100%

Row | Structure (SMILES) | Decreasing Rate in 30 mg/kg (%)
29 | O=C(C1CCOCC1)N1CCc2c(-c3cnco3)cc(C(F)(F)F)cc21 [Example 87, (4-(1,3-oxazol-5-yl)-6-(trifluoromethyl)-2,3-dihydro-1H-indol-1-yl)(tetrahydro-2H-pyran-4-yl)methanone] | 56
30 | O[C@H]1CCN(c2cc(-c3cnco3)cc(C(F)(F)F)c2)C1 [Example 95, (3S)-1-(3-(1,3-oxazol-5-yl)-5-(trifluoromethyl)phenyl)pyrrolidin-3-ol] | 66

Reference: patent US9624184B2, “Heterocyclic compound” (TAKEDA PHARMACEUTICAL COMPANY LIMITED, priority 2013, dated 2017)
